# Measured values taken from patent publication US8614242B2, “1-(heterocyclic carbonyl)-2-substituted pyrrolidines” (Bayer Intellectual Property GmbH, priority 2010, dated 2013).
# Tests used:
# [1] = logP by HPLC on reversed-phase column (EEC Directive 79/831 Annex V.A8); format: physicochemical; conditions: for logP: HPLC on reversed-phase column (C 18), 40° C., 0.1% aqueous formic acid and acetonitrile, linear gradient 10% to 90% acetonitrile
# Protocol: In table 1, the logP values were determined in accordance with EEC Directive 79/831 Annex V.A8 by HPLC (High Performance Liquid Chromatography) on a reversed-phase column (C 18), using the method described below: Temperature: 40° C.; Mobile phases: 0.1% aqueous formic acid and acetonitrile; linear gradient from 10% acetonitrile to 90% acetonitrile. Calibration was carried out using unbranched alkan-2-ones (comprising 3 to 16 carbon atoms) with known logP values (determination of the logP values by the retention times using linear interpolation between two successive alkanones). lambda-max-values were determined using UV-spectra from 200 nm to 400 nm and the peak values of the chromatographic signals.
# Sphaerotheca fuliginea = assay: In vivo preventive test on Sphaerotheca fuliginea (cucumber); conditions: 500 ppm of active ingredient, evaluated 7 days after inoculation
# Pyrenophora teres = assay: In vivo preventive test on Pyrenophora teres (barley); conditions: 500 ppm of active ingredient, evaluated 7-9 days after inoculation
# Protocol: The plants remain for 48 hours in an incubation cabinet at 22° C. and a relative atmospheric humidity of 100%.
# Venturia inaequalis = assay: In vivo preventive test on Venturia inaequalis (apple scab); conditions: 100 ppm of active ingredient, evaluated 10 days after inoculation
# Protocol: After the spray coating has dried on, the plants are inoculated with an aqueous conidia suspension of the causal agent of apple scab (Venturia inaequalis) and then remain for 1 day in an incubation cabinet at approximately 20° C. and a relative atmospheric humidity of 100%.
# Septoria tritici = assay: In vivo preventive test on Septoria tritici (wheat); conditions: 500 ppm of active ingredient, evaluated 21 days after inoculation
# Text: After the spray coating has been dried, the plants are sprayed with a spore suspension of Septoria tritici.
# [2] = tested on: Blumeria graminis f.sp. hordei; assay: In vivo preventive test on Blumeria graminis (barley); conditions: 500 ppm of active ingredient, evaluated 7 days after inoculation
# Text: After the spray coating has been dried, the plants are dusted with spores of Blumeria graminis f.sp. hordei.
# [3] = tested on: Fusarium nivale (var. majus); assay: In vivo preventive test on Fusarium nivale (wheat); conditions: 500 ppm of active ingredient, evaluated 5 days after inoculation
# Text: After the spray coating has been dried, the plants are slightly injured by using a sandblast and afterwards they are sprayed with a conidia suspension of Fusarium nivale (var. majus).
# Leptosphaeria nodorum = assay: In vivo preventive test on Leptosphaeria nodorum (wheat); conditions: evaluated 8 days after inoculation
# Text: After the spray coating has been dried, the plants are sprayed with a spore suspension of Leptosphaeria nodorum.
# Puccinia triticina = assay: In vivo preventive test on Puccinia triticina (wheat); conditions: 500 ppm of active ingredient, evaluated 8 days after inoculation
# Protocol: In Vivo Preventive Test on Puccinia Triticina (Wheat)
# Solvent: 49 parts by weight of N,N-dimethylacetamide
# Emulsifier: 1 part by weight of alkylaryl polyglycol ether
# After the spray coating has been dried, the plants are sprayed with a spore suspension of Puccinia triticina.
# The test is evaluated 8 days after the inoculation.
# Alternaria solani = assay: In vivo preventive test on Alternaria solani (tomato); conditions: evaluated 7 days after inoculation
# Protocol: The plants remain for one day in an incubation cabinet at approximately 22° C. and a relative atmospheric humidity of 100%. Then the plants are placed in an incubation cabinet at approximately 20° C. and a relative atmospheric humidity of 96%.
# [4] = 100 ppm of active ingredient, listed as 1.110
# [5] = 100 ppm of active ingredient, listed as 1.110 from WO-2009/153191
SMILES,logP [1],Efficacy (Sphaerotheca fuliginea) [%],Efficacy (Pyrenophora teres) [%],Efficacy (Venturia inaequalis) [%],Efficacy (Septoria tritici) [%],Efficacy [2] [%],Efficacy [3] [%],Efficacy (Leptosphaeria nodorum; 500 ppm of active ingredient) [%],Efficacy (Puccinia triticina) [%],Efficacy (Alternaria solani; 500 ppm of active ingredient) [%],other results
Cn1nc(C(F)F)c(C(=O)N2CCCC2Cc2c(Cl)cccc2Cl)c1F (racemic) [Example 76],3.31,95,100,–,83,100,100,–,–,–,–
"Cn1cc(C(=O)N2CCC[C@H]2COc2c(Cl)cc(Cl)cc2Cl)c(C(F)F)n1 [Example 1.006 from WO-2009/153191, [3-(difluoromethyl)-1-methyl-1H-pyrazol-4-yl]{(S)-2-[(2,4,6-trichlorophenoxy)methyl]pyrrolidin-1-yl}methanone, reference compound]",–,–,–,–,–,–,–,–,–,–,"Efficacy (Leptosphaeria nodorum; 250 ppm of active ingredient, listed as 1.006): less than 50%; Efficacy (Leptosphaeria nodorum; 250 ppm of active ingredient, listed as 1.006 from WO-2009/153191): 43%; Efficacy (Leptosphaeria nodorum; 500 ppm of active ingredient, listed as 1.006): at least 70%; Efficacy (Leptosphaeria nodorum; 500 ppm of active ingredient, listed as 1.006 from WO-2009/153191): 71%"
"Cn1cc(C(=O)N2CCCC2Cc2c(Cl)cccc2Cl)c(C(F)F)n1 (stereo not shown) [Example 1.110 from WO-2009/153191, [2-(2,6-dichlorobenzyl)pyrrolidin-1-yl][3-(difluoromethyl)-1-methyl-1H-pyrazol-4-yl]methanone, reference compound]",–,–,–,–,–,–,–,44,–,95,Efficacy (Alternaria solani; [4]): less than 30%; Efficacy (Alternaria solani; [5]): 30%; Efficacy (Leptosphaeria nodorum; [4]): no protection; Efficacy (Leptosphaeria nodorum; [5]): 0%
Cn1nc(C(F)F)c(C(=O)N2CCCC2c2cccc(C(F)(F)F)c2)c1Cl (stereo not shown) [Example 16],3.21,86,100,–,–,–,–,–,–,100,–
Cn1nc(C(F)F)c(C(=O)N2CCCC2c2ccc(Cl)cc2Cl)c1F (stereo not shown) [Example 22],3.44,91,95,–,–,–,–,–,–,100,–
Cn1nc(C(F)F)c(C(=O)N2CCCC2c2cc(Cl)cc(Cl)c2)c1Cl (stereo not shown) [Example 27],3.50,70,95,–,–,–,–,–,–,95,–
Cn1nc(C(F)F)c(C(=O)N2CCCC2c2cc(Cl)cc(Cl)c2)c1F (stereo not shown) [Example 28],3.35,100,100,–,–,–,–,–,–,95,–
Cn1nc(C(F)F)c(C(=O)N2CCCC2Cc2ccccc2)c1F (stereo not shown) [Example 52],2.84,–,100,100,100,100,100,100,89,100,–
"Cc1cccc(CC2CCCN2C(=O)c2c(C(F)F)nn(C)c2F)c1 (stereo not shown) [Example 55, [3-(difluoromethyl)-5-fluoro-1-methyl-1H-pyrazol-4-yl][2-(3-methyl-benzyl)pyrrolidin-1-yl]methanone]",–,95,100,100,100,100,100,100,100,–,chromatographic logP [1]: 3.21
Cc1ccc(CC2CCCN2C(=O)c2c(C(F)F)nn(C)c2F)cc1 (stereo not shown) [Example 56],3.23,81,100,98,100,100,100,93,89,94,–
Cn1nc(C(F)F)c(C(=O)N2CCCC2Cc2cccc(F)c2)c1F (stereo not shown) [Example 58],2.90,96,100,99,100,100,100,100,100,89,–
Cn1nc(C(F)F)c(C(=O)N2CCCC2Cc2ccc(F)cc2)c1F (stereo not shown) [Example 59],2.90,93,100,–,90,100,100,93,88,–,–

# Further lines, with some results ahead:
logP [1],SMILES,Efficacy (Sphaerotheca fuliginea) [%],Efficacy (Pyrenophora teres) [%],Efficacy (Venturia inaequalis) [%],Efficacy (Septoria tritici) [%],Efficacy [2] [%],Efficacy [3] [%],Efficacy (Leptosphaeria nodorum; 500 ppm of active ingredient) [%],Efficacy (Puccinia triticina) [%],Efficacy (Alternaria solani; 500 ppm of active ingredient) [%],other results
3.25,Cn1nc(C(F)F)c(C(=O)N2CCCC2Cc2cccc(Cl)c2)c1F (racemic) [Example 64],93,100,100,100,100,100,93,100,–,–
3.29,Cn1nc(C(F)F)c(C(=O)N2CCCC2Cc2ccc(Cl)cc2)c1F (racemic) [Example 65],95,100,100,100,100,100,100,–,94,–
3.15,Cn1nc(C(F)F)c(C(=O)N2CCCC2Cc2c(F)cccc2Cl)c1F (racemic) [Example 67],95,100,100,100,100,100,100,94,100,–
3.59,Cn1nc(C(F)F)c(C(=S)N2CCCC2c2cccc(C(F)(F)F)c2)c1F (stereo not shown) [Example 18],100,100,–,–,–,–,–,–,90,–
3.13,Cn1nc(C(F)F)c(C(=O)N2CCCC2c2ccc(C(F)(F)F)cc2)c1F (stereo not shown) [Example 21],81,95,–,–,–,–,–,–,90,–
4.09,Cn1nc(C(F)F)c(C(=S)N2CCCC2c2ccc(Cl)cc2Cl)c1F (stereo not shown) [Example 24],95,100,–,–,–,–,–,–,90,–
3.23,Cn1nc(C(F)F)c(C(=O)N2CCCC2c2ccc(Cl)c(Cl)c2)c1F (stereo not shown) [Example 26],95,100,–,–,–,–,–,–,95,–
2.98,Cn1nc(C(F)F)c(C(=O)N2CCCC2c2ccccc2Br)c1F (stereo not shown) [Example 32],95,100,–,–,–,–,–,–,95,–
2.92,Cn1nc(C(F)F)c(C(=O)N2CCCC2c2cccc(Br)c2)c1F (stereo not shown) [Example 34],95,100,–,–,–,–,–,–,95,–
3.63,Cn1nc(C(F)F)c(C(=O)N2CCCC2c2cc(C(F)(F)F)cc(C(F)(F)F)c2)c1F (stereo not shown) [Example 39],100,100,–,–,–,–,–,–,95,–
3.13,Cc1ccccc1CC1CCCN1C(=O)c1c(C(F)F)nn(C)c1F (stereo not shown) [Example 54],95,95,100,100,100,100,100,100,94,–
2.86,Cn1nc(C(F)F)c(C(=O)N2CCCC2Cc2ccccc2F)c1F (stereo not shown) [Example 57],94,100,100,100,100,100,100,100,94,–
3.06,Cn1nc(C(F)F)c(C(=O)N2CCCC2Cc2ccccc2Cl)c1F (stereo not shown) [Example 60],95,100,100,–,100,100,100,100,100,–
